Reference: patent US10364247B2, “Preparation and use of novel protein kinase inhibitors” (Ruijin Hospital Affiliated to Shanghai Jiao Tong University …, priority 2015, dated 2019)

Legend:
Assay in all cases: KINOMEscan competition binding
TXK = biological target: T1, TXK (Homo sapiens, UniProt P42681); details: read-out: Percent Control
T1 construct: purchased KINOMEscan (panel service)
In short: (§1)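 Competitive displacement format with an active-site ligand on solid support; test concentration 10 μM; data as % Ctrl, lower meaning stronger hit.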

PRKCQ = biological target: T2, PRKCQ (Homo sapiens, UniProt Q04759); details: read-out: Percent Control
T2 construct: purchased KINOMEscan (screening platform)
In short: as §1

EGFR(L747-T751del, Sins) = details: 10 μM
In short: as §1

PFCDPK1(P. falciparum) = PFCDPK1(P. falciparum) (Plasmodium falciparum, UniProt P62344); details: PFCDPK1(P. falciparum) (Entrez CDPK1), read-out: Percent Control
In short: as §1

KIT(L576P) = KIT(L576P) (Homo sapiens, UniProt P10721, L576P); details: read-out: Percent Control
In short: as §1

EPHA7 = EPHA7 (Homo sapiens, UniProt Q15375); details: read-out: Percent Control
In short: as §1

IKK-alpha = IKK-alpha (Homo sapiens, UniProt O15111); details: IKK-alpha (Entrez CHUK), read-out: Percent Control
In short: as §1

MUSK = MUSK (Homo sapiens, UniProt O15146); details: read-out: Percent Control
Sequence of MUSK (O15146 24-869): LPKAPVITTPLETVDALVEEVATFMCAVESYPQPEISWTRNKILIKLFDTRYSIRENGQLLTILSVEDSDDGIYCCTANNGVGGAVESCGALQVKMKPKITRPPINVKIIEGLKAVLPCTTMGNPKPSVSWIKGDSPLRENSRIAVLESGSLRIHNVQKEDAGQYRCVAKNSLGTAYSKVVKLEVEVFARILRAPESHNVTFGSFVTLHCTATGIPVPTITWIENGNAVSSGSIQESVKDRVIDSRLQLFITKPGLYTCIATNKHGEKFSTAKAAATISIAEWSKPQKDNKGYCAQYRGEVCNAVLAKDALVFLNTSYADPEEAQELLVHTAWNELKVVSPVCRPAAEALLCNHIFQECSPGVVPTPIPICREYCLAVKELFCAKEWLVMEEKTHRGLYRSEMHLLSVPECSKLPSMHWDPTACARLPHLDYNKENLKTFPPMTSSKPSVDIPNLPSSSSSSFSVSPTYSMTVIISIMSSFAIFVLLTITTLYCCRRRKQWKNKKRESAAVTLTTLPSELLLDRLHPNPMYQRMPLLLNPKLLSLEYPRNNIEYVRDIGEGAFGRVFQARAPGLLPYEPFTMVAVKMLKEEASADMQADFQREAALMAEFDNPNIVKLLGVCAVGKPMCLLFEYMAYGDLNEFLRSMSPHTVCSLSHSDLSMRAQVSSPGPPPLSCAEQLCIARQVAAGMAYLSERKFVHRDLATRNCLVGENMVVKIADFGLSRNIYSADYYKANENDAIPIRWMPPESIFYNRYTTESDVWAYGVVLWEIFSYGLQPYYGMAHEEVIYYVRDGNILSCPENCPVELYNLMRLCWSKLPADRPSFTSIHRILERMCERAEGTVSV
In short: as §1

FES = FES (Homo sapiens, UniProt P07332); details: read-out: Percent Control
Sequence of FES (P07332 whole entry): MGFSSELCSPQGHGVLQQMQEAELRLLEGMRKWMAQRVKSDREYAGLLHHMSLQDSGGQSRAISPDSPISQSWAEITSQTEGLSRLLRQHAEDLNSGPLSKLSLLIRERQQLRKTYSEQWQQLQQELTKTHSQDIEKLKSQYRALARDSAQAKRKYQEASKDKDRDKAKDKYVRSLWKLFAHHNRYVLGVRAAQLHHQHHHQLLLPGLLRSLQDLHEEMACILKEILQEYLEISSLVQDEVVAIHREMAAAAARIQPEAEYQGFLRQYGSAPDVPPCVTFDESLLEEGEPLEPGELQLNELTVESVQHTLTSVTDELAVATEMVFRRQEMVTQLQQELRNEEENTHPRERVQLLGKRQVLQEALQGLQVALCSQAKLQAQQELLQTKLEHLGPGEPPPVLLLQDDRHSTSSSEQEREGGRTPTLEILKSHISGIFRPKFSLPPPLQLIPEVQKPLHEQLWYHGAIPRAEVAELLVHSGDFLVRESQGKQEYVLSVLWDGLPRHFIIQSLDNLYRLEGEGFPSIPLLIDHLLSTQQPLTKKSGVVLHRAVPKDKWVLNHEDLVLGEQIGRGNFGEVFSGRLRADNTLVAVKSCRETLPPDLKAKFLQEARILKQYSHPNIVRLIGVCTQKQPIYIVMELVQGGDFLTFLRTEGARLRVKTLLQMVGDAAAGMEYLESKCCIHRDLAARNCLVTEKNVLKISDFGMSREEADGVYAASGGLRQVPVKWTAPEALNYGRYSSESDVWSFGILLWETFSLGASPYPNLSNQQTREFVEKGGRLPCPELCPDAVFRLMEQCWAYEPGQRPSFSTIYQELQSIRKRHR
In short: as §1

[1] = biological target: T3, JAK2(JH1domain-catalytic) (Homo sapiens, UniProt O60674); details: read-out: Percent Control
T3 construct: JAK2(JH1domain-catalytic)
T3 sequence (O60674 849-1124 limits assumed): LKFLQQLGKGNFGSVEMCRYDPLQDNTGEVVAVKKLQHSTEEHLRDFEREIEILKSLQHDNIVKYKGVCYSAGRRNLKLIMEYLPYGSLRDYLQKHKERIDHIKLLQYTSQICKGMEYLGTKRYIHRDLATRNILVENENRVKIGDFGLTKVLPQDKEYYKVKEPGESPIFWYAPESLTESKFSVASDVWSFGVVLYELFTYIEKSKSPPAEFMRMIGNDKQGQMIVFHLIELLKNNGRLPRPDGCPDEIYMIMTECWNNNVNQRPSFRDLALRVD
In short: as §1

PDGFRA = PDGFRA (Homo sapiens, UniProt P16234); details: read-out: Percent Control
In short: as §1

BRAF = BRAF (Homo sapiens, UniProt P15056); details: read-out: Percent Control
Sequence of BRAF (P15056 whole entry): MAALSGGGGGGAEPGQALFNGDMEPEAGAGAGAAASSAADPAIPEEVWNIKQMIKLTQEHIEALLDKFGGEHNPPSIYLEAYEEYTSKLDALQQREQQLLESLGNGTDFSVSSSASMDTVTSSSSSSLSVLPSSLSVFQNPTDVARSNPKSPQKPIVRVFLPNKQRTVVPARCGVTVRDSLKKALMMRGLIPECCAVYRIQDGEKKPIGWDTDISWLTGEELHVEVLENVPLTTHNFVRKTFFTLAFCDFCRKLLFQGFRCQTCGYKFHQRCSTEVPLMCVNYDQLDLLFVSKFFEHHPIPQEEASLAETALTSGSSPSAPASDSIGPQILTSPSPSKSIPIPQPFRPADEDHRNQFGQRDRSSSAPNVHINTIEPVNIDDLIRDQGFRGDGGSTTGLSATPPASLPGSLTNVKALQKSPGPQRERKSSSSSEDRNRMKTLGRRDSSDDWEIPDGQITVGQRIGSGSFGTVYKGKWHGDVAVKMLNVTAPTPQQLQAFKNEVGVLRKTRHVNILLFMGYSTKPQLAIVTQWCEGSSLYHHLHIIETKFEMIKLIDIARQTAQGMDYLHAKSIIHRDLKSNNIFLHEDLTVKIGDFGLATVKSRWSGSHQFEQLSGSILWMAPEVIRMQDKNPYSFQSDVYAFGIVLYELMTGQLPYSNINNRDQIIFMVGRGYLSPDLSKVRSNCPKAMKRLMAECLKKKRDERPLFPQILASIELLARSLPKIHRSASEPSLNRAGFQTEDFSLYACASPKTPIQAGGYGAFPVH
In short: as §1

GAK = biological target: T4, GAK (Homo sapiens, UniProt O14976); details: read-out: Percent Control
T4 construct: purchased KINOMEscan (screening service)
In short: as §1

MINK = MINK (Homo sapiens, UniProt Q8N4C8); details: MINK (Entrez MINK1), read-out: Percent Control
In short: as §1

MAP3K1 = biological target: T5, MAP3K1 (Homo sapiens, UniProt Q13233); details: read-out: Percent Control
T5 construct: purchased KINOMEscan (screening platform)
In short: as §1

RET(V804M) = biological target: T6, RET(V804M) (Homo sapiens, UniProt P07949, V804M); details: read-out: Percent Control
T6 construct: purchased KINOMEscan (panel service)
In short: as §1

DDR2 = biological target: T7, DDR2 (Homo sapiens, UniProt Q16832); details: read-out: Percent Control
T7 construct: purchased KINOMEscan (screening service)
In short: as §1

[2] = biological target: EGFR(L747-E749del, A750P) (Homo sapiens, UniProt P00533, A750P/DEL747-749); details: read-out: Percent Control
In short: as §1

EPHA2 = EPHA2 (Homo sapiens, UniProt P29317); details: read-out: Percent Control
In short: as §1

HPK1 = HPK1 (Homo sapiens, UniProt Q92918); details: HPK1 (Entrez MAP4K1), read-out: Percent Control
In short: as §1

MAP4K4 = MAP4K4 (Homo sapiens, UniProt O95819); details: read-out: Percent Control
In short: as §1

TAK1 = biological target: T8, TAK1 (Homo sapiens, UniProt O43318); details: TAK1 (Entrez MAP3K7), read-out: Percent Control
T8 construct: purchased KINOMEscan (panel service)
In short: as §1

TRKB = biological target: T9, TRKB (Homo sapiens, UniProt Q16620); details: TRKB (Entrez NTRK2), read-out: Percent Control
T9 construct: purchased KINOMEscan (screening service)
In short: as §1

PDGFRB = PDGFRB (Homo sapiens, UniProt P09619); details: read-out: Percent Control
In short: as §1

FAK = FAK (Homo sapiens, UniProt Q05397); details: FAK (Entrez PTK2), read-out: Percent Control
In short: as §1

FGFR2 = FGFR2 (Homo sapiens, UniProt P21802); details: read-out: Percent Control
In short: as §1

ERBB4 = ERBB4 (Homo sapiens, UniProt Q15303); details: read-out: Percent Control
In short: as §1

CSK = CSK (Homo sapiens, UniProt P41240); details: read-out: Percent Control
In short: as §1

WNK3 = biological target: T10, WNK3 (Homo sapiens, UniProt Q9BYP7); details: read-out: Percent Control
T10 construct: purchased KINOMEscan (screening service)
In short: as §1

FLT3(N841I) = FLT3(N841I) (Homo sapiens, UniProt P36888, N841I); details: read-out: Percent Control
In short: as §1

FGFR1 = FGFR1 (Homo sapiens, UniProt P11362); details: read-out: Percent Control
In short: as §1

BLK = BLK (Homo sapiens, UniProt P51451); details: read-out: Percent Control
Sequence of BLK (P51451 whole entry): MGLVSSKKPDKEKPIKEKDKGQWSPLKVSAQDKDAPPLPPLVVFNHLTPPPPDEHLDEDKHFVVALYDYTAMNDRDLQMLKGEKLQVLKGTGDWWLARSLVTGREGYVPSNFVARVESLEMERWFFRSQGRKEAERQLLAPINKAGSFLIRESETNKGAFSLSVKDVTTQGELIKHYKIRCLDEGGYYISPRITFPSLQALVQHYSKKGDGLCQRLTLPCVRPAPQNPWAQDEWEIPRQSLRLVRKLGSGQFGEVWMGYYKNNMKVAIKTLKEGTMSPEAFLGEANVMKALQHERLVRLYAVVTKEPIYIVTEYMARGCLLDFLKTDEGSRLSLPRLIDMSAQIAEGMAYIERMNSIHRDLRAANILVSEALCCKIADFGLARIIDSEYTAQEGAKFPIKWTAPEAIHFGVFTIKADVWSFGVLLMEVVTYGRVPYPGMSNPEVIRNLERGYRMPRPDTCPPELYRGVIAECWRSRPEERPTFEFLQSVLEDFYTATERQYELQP
In short: as §1

FLT3(D835Y) = biological target: T11, FLT3(D835Y) (Homo sapiens, UniProt P36888, D835Y); details: read-out: Percent Control
T11 construct: purchased KINOMEscan (screening service)
In short: as §1

MAP4K2 = MAP4K2 (Homo sapiens, UniProt Q12851); details: read-out: Percent Control
Sequence of MAP4K2 (Q12851 whole entry): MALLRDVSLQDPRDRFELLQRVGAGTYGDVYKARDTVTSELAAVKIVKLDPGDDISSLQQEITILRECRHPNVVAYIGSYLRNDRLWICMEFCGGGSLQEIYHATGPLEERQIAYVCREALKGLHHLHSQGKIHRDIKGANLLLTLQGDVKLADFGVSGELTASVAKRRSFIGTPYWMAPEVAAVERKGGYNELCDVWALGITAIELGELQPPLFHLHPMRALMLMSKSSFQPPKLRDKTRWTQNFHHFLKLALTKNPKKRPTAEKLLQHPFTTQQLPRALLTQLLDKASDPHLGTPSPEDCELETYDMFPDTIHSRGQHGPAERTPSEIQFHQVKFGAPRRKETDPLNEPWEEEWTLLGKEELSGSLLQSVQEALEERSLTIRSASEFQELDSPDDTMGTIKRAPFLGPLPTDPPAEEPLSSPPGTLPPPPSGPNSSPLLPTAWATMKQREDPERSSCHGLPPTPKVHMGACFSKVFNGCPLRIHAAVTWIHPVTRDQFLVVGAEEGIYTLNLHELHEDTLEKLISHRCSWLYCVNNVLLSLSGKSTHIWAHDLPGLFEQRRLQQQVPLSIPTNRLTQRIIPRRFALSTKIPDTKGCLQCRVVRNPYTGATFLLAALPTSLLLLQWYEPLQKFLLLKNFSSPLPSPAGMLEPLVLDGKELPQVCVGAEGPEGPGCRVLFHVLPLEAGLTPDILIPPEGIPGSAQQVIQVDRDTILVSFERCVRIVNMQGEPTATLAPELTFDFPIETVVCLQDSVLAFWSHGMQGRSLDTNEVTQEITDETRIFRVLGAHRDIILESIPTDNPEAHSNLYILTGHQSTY
In short: as §1

EPHA6 = EPHA6 (Homo sapiens, UniProt Q9UF33); details: read-out: Percent Control
In short: as §1

ZAK = ZAK (Homo sapiens, UniProt Q9NYL2); details: read-out: Percent Control
Sequence of ZAK (Q9NYL2 whole entry): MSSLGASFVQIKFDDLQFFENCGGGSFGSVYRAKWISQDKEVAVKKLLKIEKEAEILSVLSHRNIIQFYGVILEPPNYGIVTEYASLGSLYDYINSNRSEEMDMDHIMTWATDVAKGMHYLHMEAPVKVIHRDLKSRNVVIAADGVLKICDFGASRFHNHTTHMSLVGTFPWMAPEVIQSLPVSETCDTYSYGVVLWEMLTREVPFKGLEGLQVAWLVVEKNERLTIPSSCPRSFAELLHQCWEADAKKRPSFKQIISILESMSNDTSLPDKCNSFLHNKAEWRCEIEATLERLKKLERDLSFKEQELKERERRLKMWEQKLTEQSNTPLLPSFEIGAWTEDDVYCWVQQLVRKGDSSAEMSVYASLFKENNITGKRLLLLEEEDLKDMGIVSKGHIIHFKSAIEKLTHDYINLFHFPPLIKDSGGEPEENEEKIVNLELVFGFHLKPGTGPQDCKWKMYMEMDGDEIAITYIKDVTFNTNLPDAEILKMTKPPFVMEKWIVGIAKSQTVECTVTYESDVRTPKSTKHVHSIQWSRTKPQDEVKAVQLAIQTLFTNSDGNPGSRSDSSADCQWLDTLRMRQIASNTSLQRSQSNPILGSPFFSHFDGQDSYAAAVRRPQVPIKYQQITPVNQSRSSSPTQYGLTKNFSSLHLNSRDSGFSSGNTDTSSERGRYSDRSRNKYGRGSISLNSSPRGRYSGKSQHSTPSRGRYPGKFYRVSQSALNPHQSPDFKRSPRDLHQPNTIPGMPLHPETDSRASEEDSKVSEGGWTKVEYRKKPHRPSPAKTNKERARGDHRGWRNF
In short: as §1

[3] = biological target: ABL1(E255K)-phosphorylated (Homo sapiens, UniProt P00519, E255K); details: read-out: Percent Control
In short: as §1

Question: For `Cc1ccc(Nc2ncc3c(n2)N(C)CN(c2cc(NC(=O)c4cccc(C(F)(F)F)c4)ccc2C)C3)cn1` [IA-9, N-(4-methyl-3-(1-methyl-7-((6-methylpyridin-3-yl)amino)-1,4-dihydropyrimido[4,5-d]pyrimidin-3(2H)-yl)phenyl)-3-(trifluoromethyl)benzamide], which remaining binding at 10 µM (TXK) is on record?
Answer: 0%

Question: What about the remaining binding at 10 µM (PRKCQ) of the same molecule?
Answer: 25%

Question: And the “Percent Control” value (EGFR(L747-T751del, Sins))?
Answer: 0.4 % Ctrl

Question: And the remaining binding at 10 µM (PFCDPK1(P. falciparum))?
Answer: 0.35%

Question: What about the remaining binding at 10 µM (KIT(L576P)) of the same molecule?
Answer: 1.2%

Question: And the remaining binding at 10 µM (EPHA7)?
Answer: 0.55%

Question: What about the remaining binding at 10 µM (IKK-alpha) of the same molecule?
Answer: 1%

Question: What about the remaining binding at 10 µM (MUSK) of the same molecule?
Answer: 6.8%

Question: And the remaining binding at 10 µM (FES)?
Answer: 0.7%

Question: And the remaining binding at 10 µM [1]?
Answer: 0.35%

Question: And the remaining binding at 10 µM (PDGFRA)?
Answer: 1.6%

Question: And the remaining binding at 10 µM (BRAF)?
Answer: 0.5%

Question: And the remaining binding at 10 µM (GAK)?
Answer: 7.4%

Question: What about the remaining binding at 10 µM (MINK) of the same molecule?
Answer: 3.6%

Question: And the remaining binding at 10 µM (MAP3K1)?
Answer: 29%

Question: What about the remaining binding at 10 µM (RET(V804M)) of the same molecule?
Answer: 0%

Question: What about the remaining binding at 10 µM (DDR2) of the same molecule?
Answer: 9.1%

Question: What about the remaining binding at 10 µM [2] of the same molecule?
Answer: 0%

Question: And the remaining binding at 10 µM (EPHA2)?
Answer: 0.2%

Question: And the remaining binding at 10 µM (HPK1)?
Answer: 3.8%

Question: What about the remaining binding at 10 µM (MAP4K4) of the same molecule?
Answer: 0.6%

Question: What about the remaining binding at 10 µM (TAK1) of the same molecule?
Answer: 0.1%

Question: What about the remaining binding at 10 µM (TRKB) of the same molecule?
Answer: 10%

Question: What about the remaining binding at 10 µM (PDGFRB) of the same molecule?
Answer: 0%

Question: What about the remaining binding at 10 µM (FAK) of the same molecule?
Answer: 6.6%

Question: What about the remaining binding at 10 µM (FGFR2) of the same molecule?
Answer: 2.7%

Question: What about the remaining binding at 10 µM (ERBB4) of the same molecule?
Answer: 0%

Question: What about the remaining binding at 10 µM (CSK) of the same molecule?
Answer: 0.9%

Question: And the remaining binding at 10 µM (WNK3)?
Answer: 18%

Question: What about the remaining binding at 10 µM (FLT3(N841I)) of the same molecule?
Answer: 0.55%

Question: And the remaining binding at 10 µM (FGFR1)?
Answer: 1.3%

Question: What about the remaining binding at 10 µM (BLK) of the same molecule?
Answer: 0.3%

Question: And the remaining binding at 10 µM (FLT3(D835Y))?
Answer: 9%

Question: And the remaining binding at 10 µM (MAP4K2)?
Answer: 4.6%

Question: And the remaining binding at 10 µM (EPHA6)?
Answer: 0%

Question: And the remaining binding at 10 µM (ZAK)?
Answer: 0.55%

Question: What about the remaining binding at 10 µM [3] of the same molecule?
Answer: 1.2%
